Measurements from patent US20100267697A1, “ION CHANNEL MODULATORS” (Wyeth, priority 2006, published 2010).

Target: T1, human Cav2.2 (composed of the subunits α1, β3 and α2δ) (Homo sapiens, UniProt Q00975)
T1 construct: expressed in transfected cells
Assay: FLIPR assay (TSA201 cells stably transfected with human Cav2.2 and human Kir2.3, FLUO-4 Ca2+ signal, KCl depolarization)
Assay type: cell-based
Conditions: 70 mM KCl depolarization, average value
Protocol: TSA201 cells stably transfected with human Cav2.2 (composed of the subunits α1, β3 and α2δ) and human Kir2.3 to enhance the FLIPR Ca^2+ signal were used. These cells were plated on 384-well collagen-coated plates (BD Bioscience, Franklin Lakes, N.J.) at a density of 2×10^4 cells/well one day prior to the FLIPR assay. […] Culture media is removed and replaced with 25 μl of the FLUO-4 dye solution and incubated for one hour at room temperature. The cell plate is then placed on the FLIPR where the dye is aspirated off and replaced with 25 μl of HBSS (Invitrogen, Carlsbad, Calif.). The HBSS is then aspirated and replaced with […] of compound which is diluted in HBSS with 1% DMSO. Compounds are incubated on the cells for 15 minutes. The cells are then depolarized with 25 μl of 140 mM KCl solution (also containing 2 mM CaCl2 and 10 mM HEPES). The final concentration of KCl on the cells is 70 mM.

T1 sequence (Q00975 whole entry): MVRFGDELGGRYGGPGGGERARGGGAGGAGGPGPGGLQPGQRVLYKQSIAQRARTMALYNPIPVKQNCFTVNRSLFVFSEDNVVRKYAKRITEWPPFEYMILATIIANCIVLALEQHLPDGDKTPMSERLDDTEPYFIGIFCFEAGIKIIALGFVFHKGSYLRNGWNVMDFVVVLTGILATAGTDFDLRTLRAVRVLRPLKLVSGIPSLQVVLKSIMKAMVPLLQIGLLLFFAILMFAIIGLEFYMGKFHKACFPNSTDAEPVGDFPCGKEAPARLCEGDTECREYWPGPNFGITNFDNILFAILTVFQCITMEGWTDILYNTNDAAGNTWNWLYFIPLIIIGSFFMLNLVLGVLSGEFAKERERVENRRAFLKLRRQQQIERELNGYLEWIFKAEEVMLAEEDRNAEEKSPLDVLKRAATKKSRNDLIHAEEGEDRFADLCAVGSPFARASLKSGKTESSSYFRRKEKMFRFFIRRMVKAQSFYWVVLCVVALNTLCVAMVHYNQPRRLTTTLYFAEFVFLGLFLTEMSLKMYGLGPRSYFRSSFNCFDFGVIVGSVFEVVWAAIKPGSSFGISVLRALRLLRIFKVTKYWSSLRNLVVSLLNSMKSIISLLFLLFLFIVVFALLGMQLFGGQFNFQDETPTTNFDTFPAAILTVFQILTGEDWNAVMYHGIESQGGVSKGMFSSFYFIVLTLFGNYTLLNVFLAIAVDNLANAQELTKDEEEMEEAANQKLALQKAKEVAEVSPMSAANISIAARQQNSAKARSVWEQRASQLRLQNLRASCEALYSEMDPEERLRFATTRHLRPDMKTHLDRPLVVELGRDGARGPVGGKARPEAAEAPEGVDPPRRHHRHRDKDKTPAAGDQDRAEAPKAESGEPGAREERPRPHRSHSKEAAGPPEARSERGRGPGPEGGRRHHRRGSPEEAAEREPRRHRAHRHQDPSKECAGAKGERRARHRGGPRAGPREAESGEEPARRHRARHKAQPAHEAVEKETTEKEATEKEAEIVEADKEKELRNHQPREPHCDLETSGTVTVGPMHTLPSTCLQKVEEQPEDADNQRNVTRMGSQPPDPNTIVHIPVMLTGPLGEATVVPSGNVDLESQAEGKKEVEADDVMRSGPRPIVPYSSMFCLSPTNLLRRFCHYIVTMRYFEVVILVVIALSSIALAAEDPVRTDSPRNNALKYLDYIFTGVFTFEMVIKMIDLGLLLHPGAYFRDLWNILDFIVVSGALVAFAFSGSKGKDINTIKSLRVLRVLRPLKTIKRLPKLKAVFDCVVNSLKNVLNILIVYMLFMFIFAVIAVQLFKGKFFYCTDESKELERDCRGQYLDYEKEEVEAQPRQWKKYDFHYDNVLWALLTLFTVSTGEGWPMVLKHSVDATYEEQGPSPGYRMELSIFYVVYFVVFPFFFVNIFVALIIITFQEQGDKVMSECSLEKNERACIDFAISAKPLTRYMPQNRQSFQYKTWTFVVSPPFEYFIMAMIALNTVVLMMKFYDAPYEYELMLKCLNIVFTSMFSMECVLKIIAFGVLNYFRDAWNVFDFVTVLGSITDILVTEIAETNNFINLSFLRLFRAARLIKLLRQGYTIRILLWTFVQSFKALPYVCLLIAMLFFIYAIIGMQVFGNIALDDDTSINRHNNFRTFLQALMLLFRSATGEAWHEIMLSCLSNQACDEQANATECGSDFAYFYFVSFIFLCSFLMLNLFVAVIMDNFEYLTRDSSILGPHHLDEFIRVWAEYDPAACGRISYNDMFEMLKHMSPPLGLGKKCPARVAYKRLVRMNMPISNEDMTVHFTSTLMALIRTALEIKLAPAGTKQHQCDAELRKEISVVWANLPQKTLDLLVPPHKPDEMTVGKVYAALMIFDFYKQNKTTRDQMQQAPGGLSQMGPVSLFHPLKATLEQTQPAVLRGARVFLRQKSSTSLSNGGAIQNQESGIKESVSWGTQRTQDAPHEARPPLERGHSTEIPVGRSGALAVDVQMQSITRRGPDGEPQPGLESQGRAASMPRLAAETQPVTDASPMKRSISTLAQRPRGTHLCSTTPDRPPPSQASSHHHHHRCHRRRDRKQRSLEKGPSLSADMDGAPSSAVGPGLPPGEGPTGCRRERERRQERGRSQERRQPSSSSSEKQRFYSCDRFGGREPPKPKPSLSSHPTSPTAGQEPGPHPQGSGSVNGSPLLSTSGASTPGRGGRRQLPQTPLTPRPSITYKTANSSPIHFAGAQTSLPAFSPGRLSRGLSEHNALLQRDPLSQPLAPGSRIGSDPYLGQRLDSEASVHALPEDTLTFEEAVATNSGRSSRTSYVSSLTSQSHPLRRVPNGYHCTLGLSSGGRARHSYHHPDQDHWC
T1 sequence (P54284 whole entry partner): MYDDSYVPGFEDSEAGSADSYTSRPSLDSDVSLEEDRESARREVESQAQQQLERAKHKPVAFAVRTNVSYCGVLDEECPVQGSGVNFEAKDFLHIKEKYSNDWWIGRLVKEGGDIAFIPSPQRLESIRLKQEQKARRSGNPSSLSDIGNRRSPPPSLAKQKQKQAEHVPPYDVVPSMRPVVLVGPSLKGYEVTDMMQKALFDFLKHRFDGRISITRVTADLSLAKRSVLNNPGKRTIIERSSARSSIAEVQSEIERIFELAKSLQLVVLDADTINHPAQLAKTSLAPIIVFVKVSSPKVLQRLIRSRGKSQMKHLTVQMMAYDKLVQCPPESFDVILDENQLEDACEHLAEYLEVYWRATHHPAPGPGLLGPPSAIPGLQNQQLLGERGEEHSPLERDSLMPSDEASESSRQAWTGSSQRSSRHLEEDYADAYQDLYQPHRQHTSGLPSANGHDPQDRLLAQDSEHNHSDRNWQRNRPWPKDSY
T1 sequence (P54289 25-946 partner limits assumed): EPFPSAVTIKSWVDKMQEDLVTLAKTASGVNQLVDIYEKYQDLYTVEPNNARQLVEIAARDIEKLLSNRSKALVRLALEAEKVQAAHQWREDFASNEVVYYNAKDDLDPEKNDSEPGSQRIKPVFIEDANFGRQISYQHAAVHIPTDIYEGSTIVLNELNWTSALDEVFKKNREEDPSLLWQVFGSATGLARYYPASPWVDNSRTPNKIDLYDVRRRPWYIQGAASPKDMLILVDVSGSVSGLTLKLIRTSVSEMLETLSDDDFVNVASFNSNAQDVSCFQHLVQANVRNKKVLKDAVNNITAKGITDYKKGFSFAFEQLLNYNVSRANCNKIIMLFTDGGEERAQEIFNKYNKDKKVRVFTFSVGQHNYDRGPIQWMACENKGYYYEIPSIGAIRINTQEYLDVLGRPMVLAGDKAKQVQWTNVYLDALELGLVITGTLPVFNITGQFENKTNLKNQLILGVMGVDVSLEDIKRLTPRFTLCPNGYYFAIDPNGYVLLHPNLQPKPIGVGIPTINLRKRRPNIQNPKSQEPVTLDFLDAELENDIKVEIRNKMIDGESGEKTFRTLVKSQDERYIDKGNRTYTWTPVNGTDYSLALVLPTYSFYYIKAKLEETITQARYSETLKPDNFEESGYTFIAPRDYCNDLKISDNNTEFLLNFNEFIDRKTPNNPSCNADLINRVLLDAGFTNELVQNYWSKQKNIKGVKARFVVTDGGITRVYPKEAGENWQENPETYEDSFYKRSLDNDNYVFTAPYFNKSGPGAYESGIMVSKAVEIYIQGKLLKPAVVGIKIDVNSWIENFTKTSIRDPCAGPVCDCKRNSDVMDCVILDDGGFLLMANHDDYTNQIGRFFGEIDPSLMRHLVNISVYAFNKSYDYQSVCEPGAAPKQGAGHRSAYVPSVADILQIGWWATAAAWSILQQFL
T1 sequence (P54289 947-1103 partner limits assumed): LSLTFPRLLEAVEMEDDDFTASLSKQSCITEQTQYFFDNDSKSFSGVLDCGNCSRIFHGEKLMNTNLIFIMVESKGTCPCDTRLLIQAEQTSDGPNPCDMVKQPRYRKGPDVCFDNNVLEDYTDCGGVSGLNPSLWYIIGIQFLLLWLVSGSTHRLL

| IC50 [µM] | Structure (SMILES) |
| --- | --- |
| 3.9 | CCN(c1nc(CN(C(=O)C(C)(C)C)c2cccc(F)c2)cs1)C1CC1 [Compound 170, N-({2-[cyclopropyl(ethyl)amino]-1,3-thiazol-4-yl}methyl)-N-(3-fluorophenyl)-2,2-dimethylpropanamide] |
| 6.5 | CCN(c1nc(CN(C(=O)C(C)(C)C)c2ccccc2C)cs1)C1CC1 [Compound 171, N-({2-[cyclopropyl(ethyl)amino]-1,3-thiazol-4-yl}methyl)-2,2-dimethyl-N-(2-methylphenyl)propanamide] |
| 4.3 | CCN(c1nc(CN(C(=O)C(C)(C)C)c2cccc(C)c2)cs1)C1CC1 [Compound 172, N-({2-[cyclopropyl(ethyl)amino]-1,3-thiazol-4-yl}methyl)-2,2-dimethyl-N-(3-methylphenyl)propanamide] |
| 3.8 | CCN(c1nc(CN(C(=O)C(C)(C)C)c2ccc(C)cc2)cs1)C1CC1 [Compound 173, N-({2-[cyclopropyl(ethyl)amino]-1,3-thiazol-4-yl}methyl)-2,2-dimethyl-N-(4-methylphenyl)propanamide] |
| 3.8 | CCN(c1nc(CN(C(=O)C(C)(C)C)c2ccccc2OC)cs1)C1CC1 [Compound 174, N-({2-[cyclopropyl(ethyl)amino]-1,3-thiazol-4-yl}methyl)-N-(2-methoxyphenyl)-2,2-dimethylpropanamide] |
| 3.6 | CCN(c1nc(CN(C(=O)C(C)(C)C)c2ccc(OC)cc2)cs1)C1CC1 [Compound 175, N-({2-[cyclopropyl(ethyl)amino]-1,3-thiazol-4-yl}methyl)-N-(4-methoxyphenyl)-2,2-dimethylpropanamide] |
| 7.1 | CCN(c1nc(CN(C(=O)C(C)(C)C)c2cccc3c2CCCC3)cs1)C1CC1 [Compound 176, N-({2-[cyclopropyl(ethyl)amino]-1,3-thiazol-4-yl}methyl)-2,2-dimethyl-N-(5,6,7,8-tetrahydronaphthalen-1-yl)propanamide] |
| 9.3 | CC(C)(C)C(=O)N(Cc1csc(N2CCN(Cc3ccccc3)CC2)n1)c1ccc(F)cc1 [Compound 177, N-{[2-(4-benzylpiperazin-1-yl)-1,3-thiazol-4-yl]methyl}-N-(4-fluorophenyl)-2,2-dimethylpropanamide] |
| 19.7 | CN(C)CCN1CCN(c2nc(CN(C(=O)C(C)(C)C)c3ccc(F)cc3)cs2)CC1 [Compound 178, N-[(2-{4-[2-(dimethylamino)ethyl]piperazin-1-yl}-1,3-thiazol-4-yl)methyl]-N-(4-fluorophenyl)-2,2-dimethylpropanamide] |
| 3.9 | CC(C)(C)C(=O)N(Cc1csc(N(c2ccccc2)c2ccccc2)n1)c1ccc(F)cc1 [Compound 179, N-{[2-(diphenylamino)-1,3-thiazol-4-yl]methyl}-N-(4-fluorophenyl)-2,2-dimethylpropanamide] |
| 7.9 | CC(C)(C)C(=O)N(Cc1csc(-c2ccccc2)n1)c1ccc(F)cc1 [Compound 180, N-(4-fluorophenyl)-2,2-dimethyl-N-[(2-phenyl-1,3-thiazol-4-yl)methyl]propanamide] |
| 2.7 | CC(C)(C)C(=O)N(Cc1csc(N2CCC3(CC2)OCCO3)n1)c1ccc(F)cc1 [Compound 181, N-{[2-(1,4-dioxa-8-azaspiro[4.5]dec-8-yl)-1,3-thiazol-4-yl]methyl}-N-(4-fluorophenyl)-2,2-dimethylpropanamide] |
| 8.1 | CC(C)(C)C(=O)N(Cc1csc(N2CCC(O)CC2)n1)c1ccc(F)cc1 [Compound 182, N-(4-fluorophenyl)-N-{[2-(4-hydroxypiperidin-1-yl)-1,3-thiazol-4-yl]methyl}-2,2-dimethylpropanamide] |
| 2.3 | CC(C)(C)C(=O)N(Cc1csc(N2CCCCCC2)n1)c1ccc(F)cc1 [Compound 183, N-[(2-azepan-1-yl-1,3-thiazol-4-yl)methyl]-N-(4-fluorophenyl)-2,2-dimethylpropanamide] |
| 1.6 | CC(C)(C)C(=O)N(Cc1csc(N2CCCCCCC2)n1)c1ccc(F)cc1 [Compound 184, N-[(2-azocan-1-yl-1,3-thiazol-4-yl)methyl]-N-(4-fluorophenyl)-2,2-dimethylpropanamide] |
| 2.5 | CC(C)(C)C(=O)N(Cc1csc(N2CCC(CO)CC2)n1)c1ccc(F)cc1 [Compound 185, N-(4-fluorophenyl)-N-({2-[4-(hydroxymethyl)piperidin-1-yl]-1,3-thiazol-4-yl}methyl)-2,2-dimethylpropanamide] |
| 5.6 | CC(C)(C)C(=O)N(Cc1csc(N2CCCC(O)C2)n1)c1ccc(F)cc1 (stereo not drawn) [Compound 186, N-(4-fluroophenyl)-N-{[2-(3-hydroxypiperidin-1-yl)-1,3-thiazol-4-yl]methyl}-2,2-dimethylpropanamide] |
| 3 | CC(C)(C)C(=O)N(Cc1csc(N2CCCC(CO)C2)n1)c1ccc(F)cc1 (stereo not drawn) [Compound 187, N-(4-fluorophenyl)-N-({2-[3-(hydroxymethyl)piperidin-1-yl]-1,3-thiazol-4-yl}methyl)-2,2-dimethylpropanamide] |

| IC50 [µM] | Structure (SMILES) |
| --- | --- |
| 3.8 | CC(C)(C)C(=O)N(Cc1csc(N2CCC(C#N)CC2)n1)c1ccc(F)cc1 [Compound 188, N-{[2-(4-cyanopiperidin-1-yl)-1,3-thiazol-4-yl]methyl}-N-(4-fluorophenyl)-2,2-dimethylpropanamide] |
| 1.6 | CC(C)(C)C(=O)N(Cc1csc(N2CCSCC2)n1)c1ccc(F)cc1 [Compound 189, N-(4-fluorophenyl)-2,2-dimethyl-N-[(2-thiomorpholin-4-yl-1,3-thiazol-4-yl)methyl]propanamide] |
| 2.2 | CC1CC(C)CN(c2nc(CN(C(=O)C(C)(C)C)c3ccc(F)cc3)cs2)C1 (stereo not drawn) [Compound 190, N-{[2-(3,5-dimethylpiperidin-1-yl)-1,3-thiazol-4-yl]methyl}-N-(4-fluorophenyl)-2,2-dimethylpropanamide] |
| 1.9 | CC1CCN(c2nc(CN(C(=O)C(C)(C)C)c3ccc(F)cc3)cs2)CC1 [Compound 192, N-(4-fluorophenyl)-2,2-dimethyl-N-{[2-(4-methylpiperidin-1-yl)-1,3-thiazol-4-yl]methyl}propanamide] |
| 3.1 | CC(C)(C)C(=O)N(Cc1csc(N2CCC(c3ccccc3)CC2)n1)c1ccc(F)cc1 [Compound 193, N-(4-fluorophenyl)-2,2-dimethyl-N-{[2-(4-phenylpiperidin-1-yl)-1,3-thiazol-4-yl]methyl}propanamide] |
| 3.2 | CC(C)(C)C(=O)N(Cc1cnc(N2CCCCC2)s1)c1ccc(F)cc1 [Compound 194, N-(4-fluorophenyl)-2,2-dimethyl-N-[(2-piperidin-1-yl-1,3-thiazol-5-yl)methyl]propanamide] |
| 13.8 | CC(C)(C)C(=O)N(Cc1ccc(N2CCOCC2)nc1)c1ccc(F)cc1 [Compound 196, N-(4-fluorophenyl)-2,2-dimethyl-N-[(6-morpholin-4-ylpyridin-3-yl)methyl]propanamide] |
| 5.7 | CCN(c1nc(CN(C(C)=O)C2CCCCC2)cs1)C1CC1 [Compound 197, N-cyclohexyl-N-({2-[cyclopropyl(ethyl)amino]-1,3-thiaozl-4-yl}methyl)acetamide] |
| 3.3 | CCN(c1nc(CN(C(=O)C2CCCCC2)C2CCCCC2)cs1)C1CC1 [Compound 198, N-cyclohexyl-N-({2-[cyclopropyl(ethyl)amino]-1,3-thiazol-4-yl}methyl)cyclohexanecarboxamide] |
| 27.2 | CC(=O)N(Cc1csc(N2CCOCC2)n1)C1CCCCC1 [Compound 199, N-cyclohexyl-N-[(2-morpholin-4-yl-1,3-thiazol-4-yl)methyl]acetamide] |
| 6.3 | O=C(C1CCCCC1)N(Cc1csc(N2CCOCC2)n1)C1CCCCC1 [Compound 200, N-cyclohexyl-N-[(2-morpholin-4-yl-1,3-thiazol-4-yl)methyl]cyclohexanecarboxamide] |
| 9.7 | O=C(Cc1ccccc1)N(Cc1csc(N2CCOCC2)n1)C1CCCCC1 [Compound 201, N-cyclohexyl-N-[(2-morpholin-4-yl-1,3-thiazol-4-yl)methyl]-2-phenylacetamide] |
| 11.1 | CC(C)(C)OC(=O)c1cccc(-c2ccc(CN(C(=O)C(C)(C)C)c3ccc(F)cc3)cn2)c1 [Compound 202, tert-butyl 3-(5-{[(2,2-dimethylpropanoyl)(4-fluorophenyl)amino]methyl}pyridin-2-yl)benzoate] |
| 39 | CC(C)(C)C(=O)N(Cc1ccc(-c2cccc(C(=O)O)c2)nc1)c1ccc(F)cc1 [Compound 203, 3-(5-{[(2,2-dimethylpropanoyl)(4-fluorophenyl)amino]methyl}pyridin-2-yl)benzoic acid] |
| 11.4 | CC(C)(C)C(=O)N(Cc1csc(N2CCOCC2)n1)C1CCCCC1 [Compound 204, N-cyclohexyl-2,2-dimethyl-N-[(2-morpholin-4-yl-1,3-thiazol-4-yl)methyl]propanamide] |
| 2.1 | CCN(c1nc(CN(C(=O)C(C)(C)C)C2CCCCC2)cs1)C1CC1 [Compound 205, N-cyclohexyl-N-({2-[cyclopropyl(ethyl)amino]-1,3-thiazol-4-yl}methyl)-2,2-dimethylpropanamide] |
| 6.1 | CC(C)(C)C(=O)N(Cc1csc(C2CCCCC2)n1)c1ccc(F)cc1 [Compound 206, N-[(2-cyclohexyl-1,3-thiazol-4-yl)methyl]-N-(4-fluorophenyl)-2,2-dimethylpropanamide] |

| Structure (SMILES) | IC50 [µM] |
| --- | --- |
| CC(C)(C)C(=O)N(Cc1ccc(Cl)nc1)c1ccc(F)cc1 [Compound 195, N-[(6-chloropyridin-3-yl)methyl]-N-(4-fluorophenyl)-2,2-dimethylpropanamide] | 10.1 |
